Earlier results in patent US6447793B2, “Water soluble, broad spectrum preservative system” (The Collaborative Group, Ltd., priority 1998, dated 2002).

What was measured:
Details in all cases: pH of 4.5 or below
most bacterial = test system: most bacterial
yeast = test system: yeast
mold = test system: mold

Question: Which “activity against most bacterial” value (most bacterial) does the source give for C/C=C/C=C/C(=O)O [sorbic acid, Sorbic acid] here?
Answer: The value was “poor”.

Question: And the activity against yeast (yeast)?
Answer: The activity against yeast was “fair”.

Question: What about the activity against mold (mold) of the same compound?
Answer: The activity against mold was “very active”.
